The term IC50 denotes the concentration that inhibits the measured activity by half.

This assay has as its target T1, recombinant human GR (Homo sapiens, UniProt P04150).
T1 construct: purchased Panvera/Invitrogen P2812 (kit P2893)
T1 sequence (P04150 1-777): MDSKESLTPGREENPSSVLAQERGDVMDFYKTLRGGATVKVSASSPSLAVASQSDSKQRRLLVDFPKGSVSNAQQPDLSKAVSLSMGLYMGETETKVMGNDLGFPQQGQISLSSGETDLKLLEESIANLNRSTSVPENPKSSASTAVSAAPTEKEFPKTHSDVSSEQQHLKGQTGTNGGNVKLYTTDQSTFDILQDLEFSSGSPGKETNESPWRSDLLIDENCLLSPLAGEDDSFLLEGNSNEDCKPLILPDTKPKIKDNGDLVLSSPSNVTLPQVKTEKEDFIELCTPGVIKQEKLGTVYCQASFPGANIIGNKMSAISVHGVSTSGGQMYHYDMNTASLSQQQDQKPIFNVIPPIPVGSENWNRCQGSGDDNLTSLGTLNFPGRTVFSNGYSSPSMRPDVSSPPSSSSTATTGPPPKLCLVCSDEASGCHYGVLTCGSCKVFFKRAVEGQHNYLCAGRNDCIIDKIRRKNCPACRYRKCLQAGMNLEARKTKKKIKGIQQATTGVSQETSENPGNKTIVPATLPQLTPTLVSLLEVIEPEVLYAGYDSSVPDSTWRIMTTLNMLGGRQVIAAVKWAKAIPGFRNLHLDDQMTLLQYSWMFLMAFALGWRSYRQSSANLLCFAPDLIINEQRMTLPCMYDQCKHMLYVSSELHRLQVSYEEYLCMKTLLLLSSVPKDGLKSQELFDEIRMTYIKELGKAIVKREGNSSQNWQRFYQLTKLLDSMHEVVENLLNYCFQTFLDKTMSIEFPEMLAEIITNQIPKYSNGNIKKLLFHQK
In words: Human Glucocorticoid Receptor (GR) Assay, fluorescence polarization competition with GS Red tracer. The note with it: 2 hours at room temperature, 100% control 10 μM Dexamethasone, XLfit model 205, read-out: Inhibition of GR binding, IC50. On the procedure:
Human Glucocorticoid Receptor (GR) Assay The assay is based on a commercial kit from Panvera/Invitrogen (Part number P2893). The assay technology is fluorescence polarization. The kit utilises recombinant human GR (Panvera, Part number P2812), a Fluoromone™ labelled tracer (GS Red, Panvera, Part number P2894) and a Stabilizing Peptide 10X (Panvera, Part number P2815). The GR and Stabilizing Peptide reagents are stored at −70° C. while the GS Red is stored at −20° C. Also included in the kit are 1M DTT (Panvera, Part number P2325, stored at −20° C.) and GR Screening buffer 10X (Panvera, Part number P2814, stored at −70° C. initially but once thawed stored at room temperature). Avoid repeated freeze/thaws for all reagents. The GR Screening buffer 10X comprises 100 mM potassium phosphate, 200 mM sodium molybdate, 1 mM EDTA and 20% DMSO. Test compounds (1 μL) and controls (1 μL) in 100% DMSO were added to black polystyrene 384-well plates (Greiner low volume black flat-bottom, part number 784076). 0% control was 100% DMSO and 100% control was 10 μM Dexamethasone. Background solution (8 μL; assay buffer 10X, Stabilizing Peptide, DTT and ice cold MQ water) was added to the background wells. GS Red solution (7 μL; assay buffer 10X, Stabilizing Peptide, DTT, GS Red and ice cold water) was added to all wells except background wells. GR solution (7 μL; assay buffer 10X, Stabilizing Peptide, DTT, GR and ice cold water) was added to all wells. The plate was sealed and incubated in a dark at room temperature for 2 hours. The plate was read in an Analyst plate reader (LJL Biosystems/Molecular Devices Corporation) or other similar plate reader capable of recording fluorescence polarization (excitation wavelength 530 nm, emission wavelength 590 nm and a dichroic mirror at 561 nm).
(In general: In fluorescence polarisation assays a small probe gives low polarisation when free and higher when bound to something large.)
For the compound `CCNC(=O)c1cccc(-n2ncc3c2C=C2CC[C@H]4[C@@H]5C[C@@H](C)[C@](OC(=O)COC)(C(=O)SCF)[C@@]5(C)C[C@H](O)[C@]4(F)[C@@]2(C)C3)c1` [Example 27, (1R,2R,3aS,3bS, 10aS,10bR,11S,12aS)-7-[3-(ethylcarbamoyl)phenyl]-10b-fluoro-1-{[(fluoro-methyl)sulfanyl]-carbonyl}-11-hydroxy-2,10a,12a-trimethyl-1,2,3,3a, 3b,4,5,7,10,10a,- 10b,11,12,12a-tetradecahydrocyclo-penta[5,6]naphtho [1,2-f]indazol-1-yl methoxyacetate], the IC50 worked out at 0.47 nM.
In the case of `CNC(=O)c1cccc(-n2ncc3c2C=C2CC[C@H]4[C@@H]5C[C@@H](C)[C@](OC(=O)COC)(C(=O)SCF)[C@@]5(C)C[C@H](O)[C@]4(F)[C@@]2(C)C3)c1` [Example 28, 1R,2R,3aS,3bS, 10aS,10bR,11S,12aS)-10b-fluoro-1-{[(fluoromethyl)sulfanyl] carbonyl}-11-hydroxy-2,10a,12a-trimethyl-7[3-(methylcarbamoyl)phenyl]-1,2,3,3a,3b,4,5,7,10, 10a,10b,11,12,12a-tetradecahydrocyclo-penta[5,6]naphtho [1,2-f]indazol-1-yl methoxyacetate] it was 2.3 nM; in that of `COCC(=O)O[C@]1(C(=O)SCF)[C@H](C)C[C@H]2[C@@H]3CCC4=Cc5c(cnn5-c5cccc(C(=O)N[C@H](C)C(N)=O)c5)C[C@]4(C)[C@@]3(F)[C@@H](O)C[C@@]21C` [Example 29, (1R,2R,3aS,3bS, 10aS,10bR,11S,12aS)-7-(3-{[(1R)-2-amino-1-methyl-2-oxoethyl]carbamoyl}phenyl)-10b-fluoro-1-{[(fluoromethyl)-sulfanyl]carbonyl}-11-hydroxy-2,10a,12a-trimethyl-1,2,3,3a,3b,4,5,7,10, 10a,10b,11,12,12a-tetradecahydrocyclo-penta[5,6]naphtho [1,2-f]indazol-1-yl methoxyacetate], 2.6 nM; in that of `C[C@H]1C[C@@H]2[C@H]([C@@H](O)C[C@@]3(C)[C@H]2CC[C@]3(OC(=O)[C@H]2CCCO2)C(=O)SCF)[C@@]2(C)Cc3cnn(-c4cccc(C(=O)NCC(N)=O)c4)c3C=C12` [Example 30, (1R,3aS,3bS,5S, 10aR,10bS,11S,12aS)-7-{3-[(2-amino-2-oxoethyl)carbamoyl]phenyl}-1-{[(fluoromethyl)sulfanyl]carbonyl}-11-hydroxy-5,10a,12a-trimethyl-1,2,3,3a,3b,4,5,7,10, 10a,10b,11,12,12a-tetradecahydrocyclo-penta[5,6]naphtho [1,2-f]indazol-1-yl (2R)-tetrahydrofuran-2-carboxylate], 2.2 nM.
With `C[C@H]1C[C@@H]2[C@H]([C@@H](O)C[C@@]3(C)[C@H]2CC[C@]3(OC(=O)C2CC2)C(=O)SCF)[C@@]2(C)Cc3cnn(-c4cccc(C(=O)NCC(N)=O)c4)c3C=C12` [Example 31, (1R,3aS,3bS,5S, 10aR,10bS,11S,12aS)-7-{3-[(2-amino-2-oxoethyl)carbamoyl]phenyl}-1-{(fluoromethyl)sulfanyl] carbonyl}-11-hydroxy-5,10a,12a-trimethyl-1,2,3,3a,3b,4,5,7,10, 10a,10b,11,12,12a-tetradecahydrocyclo-penta[5,6]naphtho [1,2-f]indazol-1-yl cyclopropanecarboxylate], the IC50 amounted to 1.2 nM.
For the compound `CCC(=O)O[C@]1(C(=O)SCF)CC[C@H]2[C@@H]3CCC4=Cc5c(cnn5-c5cccc(C(=O)N[C@H](C)C(N)=O)c5)C[C@]4(C)[C@@]3(F)[C@@H](O)C[C@@]21C` [Example 32, (1R,3aS,3bS,10aS, 10bR,11S,12aS)-7-(3-{[(1R)-2-amino-1-methyl-2-oxoethyl]carbamoyl}phenyl)-10b-fluoro-1-{[(fluoromethyl)-sulfanyl]carbonyl}-11-hydroxy-10a,12a-dimethyl-1,2,3,3a,3b,4,5,7,10, 10a,10b,11,12,12a-tetradecahydrocyclo-penta[5,6]naphtho [1,2-f]indazol-1-yl propanoate], the half-maximal inhibitory concentration (IC50) is 2.5 nM.

The values above are taken from US20100256104A1, “NOVEL AMIDE COMPOUNDS” (ASTRAZENECA R&D, priority 2009, published 2010).
